Drawing on patent US20260062412A1, “NITROGEN-CONTAINING HETEROCYCLIC COMPOUND HAVING MYT1 INHIBITORY ACTIVITY” (CHUGAI SEIYAKU KABUSHIKI KAISHA, priority 2023, published 2026), this text covers IC50 for 37 compounds.

This assay has as its target MYT1 protein (Homo sapiens (Human), UniProt Q99640). In words: Test for binding to ATP binding site of MYT1 (Kinase Tracer 178 / Eu-Anti-GST antibody TR-FRET). Conditions: ATP binding site of MYT1, 30 minutes at room temperature.

Sequence of MYT1 protein (Q99640 whole entry): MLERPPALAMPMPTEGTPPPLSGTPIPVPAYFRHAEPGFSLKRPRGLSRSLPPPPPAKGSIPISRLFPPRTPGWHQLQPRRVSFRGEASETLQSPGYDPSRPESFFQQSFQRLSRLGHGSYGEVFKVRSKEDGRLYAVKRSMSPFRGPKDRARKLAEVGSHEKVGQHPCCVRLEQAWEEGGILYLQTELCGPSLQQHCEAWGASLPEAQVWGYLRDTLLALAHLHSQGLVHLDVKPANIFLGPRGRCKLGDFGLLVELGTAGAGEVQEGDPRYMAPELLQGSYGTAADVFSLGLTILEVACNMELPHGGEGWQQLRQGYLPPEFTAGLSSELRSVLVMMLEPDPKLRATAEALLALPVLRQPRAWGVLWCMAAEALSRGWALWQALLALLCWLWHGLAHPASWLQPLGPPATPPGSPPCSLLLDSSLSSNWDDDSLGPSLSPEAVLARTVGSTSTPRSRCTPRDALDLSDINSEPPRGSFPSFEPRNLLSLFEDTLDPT

Compound `CS(=O)(=O)Nc1cc2c(-c3ccc(F)c4[nH]ncc34)c(N)c(=O)[nH]c2c2cccnc12` [Compound C127, N-[3-Amino-4-(7-fluoro-1H-indazol-4-yl)-2-oxo-1H-1,7-phenanthrolin-6-yl]methanesulfonamide] had an IC50 of 1.5 nM.
As for `Cn1ncc2c(-c3c(N)c(=O)[nH]c4c3cc(Br)c3ncccc34)ccc(F)c21` [Compound C2, 3-Amino-6-bromo-4-(7-fluoro-1-methylindazol-4-yl)-1H-1,7-phenanthrolin-2-one], the figure is 1100 nM; as for `CC(C)(C)c1ccc2c(ccc3c(-c4ccc(F)c5[nH]ncc45)c(N)c(=O)[nH]c32)n1` [Compound C180, 3-Amino-8-tert-butyl-4-(7-fluoro-1H-indazol-4-yl)-1H-1,7-phenanthrolin-2-one], 41 nM; as for `Nc1c(-c2ccc(F)c3[nH]ncc23)c2cc(NS(=O)(=O)C3CC3)c3ncccc3c2[nH]c1=O` [Compound C130, N-[3-amino-4-(7-fluoro-1H-indazol-4-yl)-2-oxo-1H-1,7-phenanthrolin-6-yl]cyclopropanesulfonamide], 3.7 nM.
Turning to `Nc1c(-c2ccc(F)c3[nH]ncc23)c2cc(O[C@@H]3CCCOC3)c3ncccc3c2[nH]c1=O` [Compound C46, 3-Amino-4-(7-fluoro-1H-indazol-4-yl)-6-[(3R)-oxan-3-yl]oxy-1H-1,7-phenanthrolin-2-one], the IC50 is 2.9 nM.
As for `CCOc1cc2c(-c3ccc(F)c4[nH]ncc34)c(N)c(=O)[nH]c2c2ccc(OC)nc12` [Compound T3, 3-Amino-6-ethoxy-4-(7-fluoro-1H-indazol-4-yl)-8-methoxy-1H-1,7-phenanthrolin-2-one], the IC50 was determined as 6.1 nM.
The compound `C=C(C)c1cc2c(-c3ccc(F)c4[nH]ncc34)c(N)c(=O)[nH]c2c2cccnc12` [Compound C103, 3-Amino-4-(7-fluoro-1H-indazol-4-yl)-6-prop-1-en-2-yl-1H-1,7-phenanthrolin-2-one] yielded an IC50 of 4.3 nM.
In turn, `CCc1cc2[nH]c(=O)c(N)c(-c3ccc(Cl)c4[nH]ncc34)c2cc1Cl` [Compound A28, 3-Amino-6-chloro-4-(7-chloro-1H-indazol-4-yl)-7-ethyl-1H-quinolin-2-one] returned an IC50 of 47 nM.
`Nc1c(-c2ccc3nc[nH]c3c2)c2cc(Cl)ccc2[nH]c1=O` [Compound A48, 3-Amino-4-(3H-benzimidazol-5-yl)-6-chloro-1H-quinolin-2-one] came in with an IC50 of 5300 nM.
As to `Nc1c(-c2ccc(F)c3[nH]ncc23)c2cc(OCC3CC3)c3nccnc3c2[nH]c1=O` [Compound G11, 8-Amino-5-(cyclopropylmethoxy)-7-(7-fluoro-1H-indazol-4-yl)-10H-pyrido[2,3-f]quinoxalin-9-one], the IC50 came to 2.5 nM.
As for `Nc1c(-c2ccc(F)c3[nH]ncc23)c2cc(O)c3ncccc3c2[nH]c1=O` [Compound C3, 3-Amino-4-(7-fluoro-1H-indazol-4-yl)-6-hydroxy-1H-1,7-phenanthrolin-2-one], the figure is 3.6 nM; as for `Nc1c(-c2ccccc2)c2ccccc2[nH]c1=O` [Compound A70, 3-Amino-4-phenyl-1H-quinolin-2-one], 6200 nM; as for `Nc1c(-c2ccc(F)c3[nH]ncc23)c2cc(CCC(F)F)c3ncccc3c2[nH]c1=O` [Compound C171, 3-Amino-6-(3,3-difluoropropyl)-4-(7-fluoro-1H-indazol-4-yl)-1H-1,7-phenanthrolin-2-one], 2.2 nM.
In the case of `Nc1c(-c2cccc(O)c2)c2cc(-c3ccccc3)c3ccccc3c2[nH]c1=O` [Compound B5, 3-Amino-4-(3-hydroxyphenyl)-6-phenyl-1H-benzo[h]quinolin-2-one] it was 420 nM.
Consider `Nc1c(-c2ccc(F)c3[nH]ncc23)c2cc(N3CCC(C(F)(F)F)CC3)c3ncccc3c2[nH]c1=O` [Compound C131, 3-Amino-4-(7-fluoro-1H-indazol-4-yl)-6-[4-(trifluoromethyl)piperidin-1-yl]-1H-1,7-phenanthrolin-2-one], for which the IC50 came to 33 nM.
Compound `Nc1c(-c2cc(F)c(F)c3[nH]ncc23)c2cc(O[C@H]3C[C@H](F)C3)c3ncccc3c2[nH]c1=O` [Compound C210, 3-Amino-4-(6,7-difluoro-1H-indazol-4-yl)-6-((1r,3r)-3-fluorocyclobutyl)oxy-1H-1,7-phenanthrolin-2-one] came in with an IC50 of 1.3 nM.
In turn, `Nc1c(-c2ccc(Cl)c3[nH]ncc23)c2cc(O[C@H]3C[C@H](F)C3)c(F)cc2[nH]c1=O` [Compound A4, 3-Amino-4-(7-chloro-1H-indazol-4-yl)-7-fluoro-6-((1r,3r)-3-fluorocyclobutyl)oxy-1H-quinolin-2-one] yielded an IC50 of 3.8 nM.
`Cc1cc(-c2c(N)c(=O)[nH]c3ccc(Cl)cc23)c2cn[nH]c2c1` [Compound A55, 3-Amino-6-chloro-4-(6-methyl-1H-indazol-4-yl)-1H-quinolin-2-one] displayed an IC50 of 480 nM.
Consider `Nc1c(-c2ccc(F)c3[nH]ncc23)c2cc(C3=COCC3)c3ncccc3c2[nH]c1=O` [Compound C94, 3-Amino-6-(2,3-dihydrofuran-4-yl)-4-(7-fluoro-1H-indazol-4-yl)-1H-1,7-phenanthrolin-2-one], for which the IC50 turned out to be 8.4 nM.
In turn, `Nc1c(-c2ccc(F)c3[nH]ncc23)c2cc(SC(F)F)c3ncccc3c2[nH]c1=O` [Compound C63, 3-Amino-6-(difluoromethylsulfanyl)-4-(7-fluoro-1H-indazol-4-yl)-1H-1,7-phenanthrolin-2-one] had an IC50 of 1.1 nM.
As for `Nc1c(-c2ccc(F)c3[nH]ncc23)c2cc(I)c3ncccc3c2[nH]c1=O` [Compound C111, 3-Amino-4-(7-fluoro-1H-indazol-4-yl)-6-iodo-1H-1,7-phenanthrolin-2-one], the figure is 4.9 nM.
On to `Nc1c(-c2ccc(F)c3[nH]ncc23)c2cc(Br)c3nccnc3c2[nH]c1=O` [Compound G1, 8-Amino-5-bromo-7-(7-fluoro-1H-indazol-4-yl)-10H-pyrido[2,3-f]quinoxalin-9-one], for which the IC50 was 16 nM.
In turn, `Nc1c(-c2ccc(F)c3[nH]ncc23)c2cc(C3CC4(CCC4)C3)c3ncccc3c2[nH]c1=O` [Compound C169, 3-Amino-4-(7-fluoro-1H-indazol-4-yl)-6-spiro[3,3]heptan-2-yl-1H-1,7-phenanthrolin-2-one] registered an IC50 of 86 nM.
In the case of `Cc1cc2c(-c3ccc(F)c4[nH]ncc34)c(N)c(=O)[nH]c2c2nccnc12` [Compound G3, 8-Amino-7-(7-fluoro-1H-indazol-4-yl)-5-methyl-10H-pyrido[2,3-f]quinoxalin-9-one] it was 7.9 nM.
As to `Nc1c(-c2cc(F)c(F)c3[nH]ncc23)c2cc(C3CCC3)c3ncccc3c2[nH]c1=O` [Compound C201, 3-Amino-6-cyclobutyl-4-(6,7-difluoro-1H-indazol-4-yl)-1H-1,7-phenanthrolin-2-one], the IC50 worked out at 5.7 nM.
As for `Nc1c(-c2c(F)ccc3[nH]ncc23)c2cc(Br)c3ncccc3c2[nH]c1=O` [Compound C154, 3-Amino-6-bromo-4-(5-fluoro-1H-indazol-4-yl)-1H-1,7-phenanthrolin-2-one], the figure is 3.3 nM; as for `C[C@@H](Oc1cc2c(-c3ccc(F)c4[nH]ncc34)c(N)c(=O)[nH]c2c2cccnc12)C(F)(F)F` [Compound C27, 3-Amino-4-(7-fluoro-1H-indazol-4-yl)-6-[(2R)-1,1,1-trifluoropropan-2-yl]oxy-1H-1,7-phenanthrolin-2-one], 4.4 nM; as for `Cc1nc2[nH]c(=O)c(N)c(-c3ccc(Cl)c4[nH]ncc34)c2cc1O[C@H]1C[C@H](F)C1` [Compound A15, 3-Amino-4-(7-chloro-1H-indazol-4-yl)-6-((1r,3r)-3-fluorocyclobutyl)oxy-7-methyl-1H-1,8-naphthyridin-2-one], 13 nM.
In the case of `Cc1cc2c(-c3cccc4[nH]nnc34)c(N)c(=O)[nH]c2c2cccnc12` [Compound C224, 3-Amino-4-(1H-benzotriazol-4-yl)-6-methyl-1H-1,7-phenanthrolin-2-one], the IC50 is 3000 nM.
In the case of `O=c1[nH]c2c(cc(Br)c3nccnc32)c(-c2ccc(F)c3[nH]ncc23)c1Cl` [Compound G2, 5-Bromo-8-chloro-7-(7-fluoro-1H-indazol-4-yl)-10H-pyrido[2,3-f]quinoxalin-9-one] it was 270 nM.
`Nc1c(-c2cccc(O)c2)c2cc(C3CC3)ccc2[nH]c1=O` [Compound A65, 3-Amino-6-cyclopropyl-4-(3-hydroxyphenyl)-1H-quinolin-2-one] gave an IC50 of 190 nM.
Regarding `COCC(F)(F)COc1cc2c(-c3ccc(F)c4[nH]ncc34)c(N)c(=O)[nH]c2c2cccnc12` [Compound C26, 3-Amino-6-(2,2-difluoro-3-methoxypropoxy)-4-(7-fluoro-1H-indazol-4-yl)-1H-1,7-phenanthrolin-2-one], the IC50 came to 2.3 nM.
`Nc1c(-c2ccc(F)c3[nH]ncc23)c2cc(CC(F)F)c3ncccc3c2[nH]c1=O` [Compound C170, 3-Amino-6-(2,2-difluoroethyl)-4-(7-fluoro-1H-indazol-4-yl)-1H-1,7-phenanthrolin-2-one] returned an IC50 of 3.3 nM.
As for `Nc1c(-c2ccc(F)c3[nH]ncc23)c2cc(N3CC(N4CC(F)(F)C4)C3)c3cccnc3c2[nH]c1=O` [Compound D11, 3-Amino-6-[3-(3,3-difluoroazetidin-1-yl)azetidin-1-yl]-4-(7-fluoro-1H-indazol-4-yl)-1H-1,10-phenanthrolin-2-one], the figure is 20 nM.
`Nc1c(-c2ccc(F)c3[nH]ncc23)c2cc(C3CC3)c3ncsc3c2[nH]c1=O` [Compound K3, 7-Amino-4-cyclopropyl-6-(7-fluoro-1H-indazol-4-yl)-9H-[1,3]thiazolo[4,5-h]quinolin-8-one]: the IC50 is 50 nM.
As for `Cc1nc2[nH]c(=O)c(N)c(-c3ccc(Cl)c4[nH]ncc34)c2cc1O[C@H]1C[C@H](C#N)C1` [Compound A16, (1r,3r)-3-[[6-Amino-5-(7-chloro-1H-indazol-4-yl)-2-methyl-7-oxo-8H-1,8-naphthyridine-3-yl]oxy]cyclobutane-1-carbonitrile], the figure is 5 nM.
In the case of `C#Cc1cc(Cl)cc2c(-c3ccc(Cl)c4[nH]ncc34)c(N)c(=O)[nH]c12` [Compound A18, 3-Amino-6-chloro-4-(7-chloro-1H-indazol-4-yl)-8-ethynyl-1H-quinolin-2-one] it was 87 nM.

What is called IC50 is the concentration that gives 50% inhibition.
